In patent US20240075140A1, “ENGINEERED NK CELLS AND METHODS OF TREATING CANCER” (American Gene Technologies Intemational Inc, priority 2021, published 2024):

Tested on: Daudi cells
Test: CD107a response of Mitomycin C treated S76 to Daudi cells
Assay type: cell-based
Conditions: various concentrations, 1 or 2 hours; Daudi 2:1, 4 hours
Procedure: Cloned S76 cells were treated with MMC at various concentration for 1 or 2 hours. After MMC treatment, S76 was mixed with Daudi cells at a 2:1 ratio for 4 hours. CD107a was measured by flow cytometry. For detecting CD107a, cells were washed, resuspended in 50-100 μl of staining buffer, and stained with mouse anti-human Vδ2-PE clone B6 and mouse anti-human CD107a-APC clone H4A3. Cells were washed with staining buffer and resuspended. Data for at least 1×10^4 lymphocytes (gated on the basis of forward- and side-scatter profiles) were acquired from each sample on a FACSCalibur flow cytometer (BD Biosciences). All samples were analyzed using FlowJo software.

Compound: CO[C@@]12[C@H](COC(N)=O)C3=C(C(=O)C(C)=C(N)C3=O)N1C[C@@H]1N[C@@H]12 [MMC, Mitomycin C]
- effect of Mitomycin C treatment on function of clone S76 (CD107a response to Daudi): did not significantly impair the function
